From patent US20260250278A1, “PHENYL-SUBSTITUTED DIHYDRONAPHTHYRIDINE COMPOUNDS, AND PREPARATION AND USE THEREOF” (SUZHONG PHARMACEUTICAL GROUP CO., LTD., priority 2022, published 2026)

Molecular target: T1, mineralocorticoid receptor (MR) (Homo sapiens, UniProt P08235)
T1 construct: expressed in transfected cells
T1 sequence (P08235 726-964 limits assumed): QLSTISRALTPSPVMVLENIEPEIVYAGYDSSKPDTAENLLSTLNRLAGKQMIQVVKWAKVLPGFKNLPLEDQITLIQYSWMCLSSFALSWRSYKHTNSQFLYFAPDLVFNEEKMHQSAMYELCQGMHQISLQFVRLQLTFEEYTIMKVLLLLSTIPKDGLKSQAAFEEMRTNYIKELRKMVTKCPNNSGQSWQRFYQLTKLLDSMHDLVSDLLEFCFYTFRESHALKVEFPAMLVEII
Assay: MR Gal4-LBD luciferase reporter gene assay in HEK293T cells (antagonism of 0.8 nM aldosterone)
Assay type: cell-based
Description: By the characteristic of chemiluminescence reaction produced by combination of luciferase and substrate, a Gal4 DNA binding domain (DBD) fused plasmid containing a mineralocorticoid receptor (MR) ligand binding domain (LBD) and a firefly luciferase reporter gene plasmid under the control of Gal4 UAS (upstream activation sequence) were transfected into human embryonic kidney cells (HEK293). Changes of […] were judged by a level of firefly luciferase activity.
All compounds were dissolved in DMSO to prepare a 25 mM stock solution, and stored in a refrigerator at −20° C.
• 1) A compound to be tested was subjected to 3-times gradient dilution with the DMSO, with 10 concentration gradients and an initial concentration of 10 mM. • 2) A positive compound (Finerenone) was subjected to 3-times gradient dilution with the DMSO, with 10 concentration gradients and an initial concentration of 1 mM. • 3) 1000× positive control (1 mM, Finerenone) and 1000× negative control (100% DMSO) were prepared. • 4) A compound plate was sealed and shaken for 5 minutes.
• 5) All cells were cultured by ATCC standard operation, and HEK293T was experimented in an exponential growth phase. • 6) A culture medium supernatant was gently discarded. The cells were washed with PBS twice.
(3) The cells were digested with pancreatin digestive juice, the digestion was stopped with a complete culture solution, and then the cells were collected and counted.
(4) 6×10^6 HEK293T cells were inoculated into a 100 mm cell culture dish.
(5) The culture dish inoculated with the cells was cultured in a 5% CO2 incubator at 37° C. for 16 hours overnight.
• 1) Lipofectamine® 3000&P3000 transfection reagents were placed at room temperature. • 2) The Lipofectamine® 3000 reagent was added into an Opti-MEM™ culture medium, and meanwhile, the P3000, the plasmid and the Opti-MEM™ culture medium were added into another tube, taking care not to touch the tube wall. • 3) The mixture was mixed evenly by a pipette, and allowed to stand at room temperature for 5 minutes. • 4) The plasmid was added into the diluted transfection reagent, mixed evenly by a pipette, and allowed to stand at room temperature for 20 minutes. • 5) The transfection reagent mixed with the plasmid was added into a […] cell culture dish. • 6) The culture dish was cultured in a 5% CO2 incubator at 37° C. for 5 hours to 6 hours.
• 1) 25 nL of diluted compound was transferred to a cell culture plate with Echo655. • 2) The cells (referring to step 1.3) were inoculated into a 384 cell culture plate, with 17,000 cells, 25 μL of phenol red-free DMEM culture medium containing 5% CFBS and 0.8 nM Aldosteron per well.
(3) The cell culture plate was cultured in a 5% CO2 incubator at 37° C. for 18 hours to 20 hours overnight.
• 1) A Britelite plus detection reagent was placed at room temperature. 2) The 384 cell plate was placed at room temperature. • 3) 25 μL of Britelite plus detection reagent was added into each well of the cell culture plate. • 4) A luminescence was detected with Envision.
• 1) a firefly luciferase signal was obtained by reading the Luminescence to calculate an inhibition rate; • 2) % inhibition rate=100−[(RLU compound−avgRLU positive control)/(RLU negative control−avgRLU positive control)×100%, wherein the avgRLU positive control was an average value of Luminescences of all positive control wells in the whole plate; the avgRLU negative control was an average value of Luminescences of all negative control wells in the whole plate; and the RLU compound was Luminescence values of compounds to be tested with different concentrations; and • 3) IC50 of the compound was calculated by Graphpad8.0 Drawing software.

IC50	SMILES
235 nM	COc1cc(C#N)ccc1C1C(C#N)=C(C)Nc2c1ccc1c2CCC1 (stereo not drawn) [Example 5, 4-(4-cyano-2-methoxyphenyl)-2-methyl-4,7,8,9-tetrahydrocyclopentane-3-carbonitrile]
348 nM	COc1cc(C#N)ccc1C1C(C#N)=C(C)Nc2c(C)cc3nncn3c21 (stereo not drawn) [Example 10, 9-(4-cyano-2-methoxyphenyl)-5,7-dimethyl-6,9-dihydro[1,2,4]triazolo[4,3-a][1,5]naphthyridine-8-carbonitrile]
661 nM	CCOc1nn(C)c2c1C(c1ccc(C#N)cc1OC)C(C#N)=C(C)N2 (stereo not drawn) [Example 9, 4-(4-cyano-2-methoxyphenyl)-3-ethoxy-1,6-dimethyl-4,7-dihydropyrazolo[3,4-b]pyridine-5-carbonitrile]
7.9 nM	CC1=C(C(N)=O)C(c2ccc(C#N)c3c2OCC3)c2c(OCC(F)(F)F)ncc(C)c2N1 (stereo not drawn) [Example 24, 4-cyano-2,3-dihydrobenzofuran-7-yl-2,8-dimethyl-5-(2,2,2-trifluoroethoxy)-1,4-dihydro-1,6-naphthyridine-3-formamide]
24.8 nM	CC1=C(C(N)=O)C(c2ccc(C#N)c3c2OCC3)c2c(OC(F)(F)F)ncc(C)c2N1 (stereo not drawn) [Example 23, 4-cyano-2,3-dihydrobenzofuran-7-yl-2,8-dimethyl-5-trifluoromethoxy-1,4-dihydro-1,6-naphthyridine-3-formamide]
12.7 nM	CCOc1ncc(C)c2c1[C@H](c1ccc(C#N)c3c1OCCO3)C(C(N)=O)=C(C)N2 [Example 40, (S)-4-(8-cyano-2,3-dihydrobenzo[b][1,4]dioxin-5-yl)-5-ethoxy-2,8-dimethyl-1,4-dihydro-1,6-naphthyridine-3-formamide]
46.2 nM	CCOc1ncc(C)c2c1C(c1ccc(C#N)c3c1OCO3)C(C(N)=O)=C(C)N2 (stereo not drawn) [Example 14, 4-(7-cyanobenzo[d][1,3]dioxacyclopenten-4-yl)-5-ethoxy-2,8-dimethyl-1,4-dihydro-1,6-naphthyridine-3-formamide]
20.4 nM	COc1cc(C#N)ccc1C1C(C#N)=C(C)Nc2sc3ccccc3c21 (stereo not drawn) [Example 8, 4-(4-cyano-2-methoxyphenyl)-2-methyl-1,4-dihydrobenzo[4,5]thieno[2,3-b]pyridine-3-carbonitrile]
19.2 nM	CC1=C(C(N)=O)C(c2ccc(C#N)c3c2OCC3)c2c(OC(F)F)ncc(C)c2N1 (stereo not drawn) [Example 17, 4-(4-cyano-2,3-dihydrobenzofuran-7-yl)-5-(difluoromethoxy)-2,8-dimethyl-1,4-dihydro-1,6-naphthyridine-3-formamide]
322 nM	COc1cc(C#N)ccc1C1C(C#N)=C(C)Nc2c(C)cn3nccc3c21 (stereo not drawn) [Example 7, 10-(4-cyano-2-methoxyphenyl)-6,8-dimethyl-7H,10H-pyrazolo[3,2-f]1,6-naphthyridine-9-carbonitrile]

More lines, now with the values behind:

SMILES	IC50
CC1=C(C(N)=O)C(c2ccc(C#N)c3c2OCC3)c2c(OC3CCC3)ncc(C)c2N1 (stereo not drawn) [Example 21, 4-(4-cyano-2,3-dihydrobenzofuran-7-yl)-5-cyclobutoxy-2,8-dimethyl-1,4-dihydro-1,6-naphthyridine-3-formamide]	20.2 nM
CCOc1ncc(C)c2c1C(c1ccc(C#N)cc1OC)C(c1nnc(C)o1)=C(C)N2 (stereo not drawn) [Example 3, 4-(5-ethoxy-2,8-dimethyl-3-(5-methyl-1,3,4-oxadiazole-2-yl)-1,4-dihydro-1,6-naphthyridine-4-yl)-3-methoxybenzonitrile]	113 nM
CC1=C(C(N)=O)C(c2ccc(C#N)c3c2OCC3)c2c(OC3CC3)ncc(C)c2N1 (stereo not drawn) [Example 18, 4-(4-cyano-2,3-dihydrobenzofuran-7-yl)-5-cyclopropoxy-2,8-dimethyl-1,4-dihydro-1,6-naphthyridine-3-formamide]	28.5 nM
CCOc1ncc(C)c2c1C(c1ccc(C#N)c3c1OCCC3)C(C(N)=O)=C(C)N2 (stereo not drawn) [Example 6, 4-(5-cyanored-8-yl)-5-ethoxy-2,8-dimethyl-1,4-dihydro-1,6-naphthyridine-3-formamide]	21.6 nM
CC1=C(C(N)=O)C(c2ccc(C#N)c3c2OCC3)c2c(OCC3CC3)ncc(C)c2N1 (stereo not drawn) [Example 19, 4-cyano-2,3-dihydrobenzofuran-7-yl-5-cyclopropylmethoxy-2,8-dimethyl-1,4-dihydro-1,6-naphthyridine-3-formamide]	27.7 nM
CC1=C(C(N)=O)C(c2ccc(C#N)c3c2OCC3)c2c(OCC3CCC3)ncc(C)c2N1 (stereo not drawn) [Example 22]	8.7 nM
CCOc1ncc(C)c2c1[C@H](c1ccc(C#N)c3c1OCCC3)C(C(N)=O)=C(C)N2 [Example 32, (S)-4-(5-cyanored-8-yl)-5-ethoxy-2,8-dimethyl-1,4-dihydro-1,6-naphthyridine-3-formamide]	8 nM
CC1=C(C(N)=O)C(c2ccc(C#N)c3c2OCC3)c2c(OC3CCCC3)ncc(C)c2N1 (stereo not drawn) [Example 15, 4-(4-cyano-2,3-dihydrobenzofuran-7-yl)-5-cyclopentoxy-2,8-dimethyl-1,4-dihydro-1,6-naphthyridine-3-formamide]	18.2 nM
CC1=C(C(N)=O)C(c2ccc(C#N)c3c2OCC3)c2c(OC(C)C)ncc(C)c2N1 (stereo not drawn) [Example 20, 4-(4-cyano-2,3-dihydro-1-benzofuran-7-yl)-5-isopropoxy-2,8-dimethyl-1,4-dihydro-1,6-naphthyridine-3-formamide]	15.2 nM
CCOc1nc2ccsc2c2c1C(c1ccc(C#N)cc1OC)C(C(N)=O)=C(C)N2 (stereo not drawn) [Example 13, 6-(4-cyano-2-methoxyphenyl)-5-ethoxy-8-methyl-6,9-dihydrothieno[3,2-h][1,6]naphthyridine-7-formamide]	232 nM
CCOc1ncc(C)c2c1C(c1ccc(C#N)c3c1OCCO3)C(C(N)=O)=C(C)N2 (stereo not drawn) [Example 25, 4-(8-cyano-2,3-dihydrobenzo[b][1,4]dioxin-5-yl)-5-ethoxy-2,8-dimethyl-1,4-dihydro-1,6-naphthyridine-3-formamide]	37.5 nM
CCOc1nc2ccccc2c2c1C(c1ccc(C#N)cc1OC)C(C#N)=C(C)N2 (stereo not drawn) [Example 12, 4-(4-cyano-2-methoxyphenyl)-5-ethoxy-2-methyl-1H,4H-benzo[h]-1,6-naphthyridine-3-carbonitrile]	215 nM
CCOc1nc2c(c3c1C(c1ccc(C#N)cc1OC)C(C(N)=O)=C(C)N3)CCC2 (stereo not drawn) [Example 4, 4-(4-cyano-2-methoxyphenyl)-5-ethoxy-2-methyl-4,7,8,9-tetrahydrocyclopentane-1H-cyclopentamide]	111 nM
CCOc1ncc(C)c2c1C(c1ccc(C#N)cc1OC)C(c1ncco1)=C(C)N2 (stereo not drawn) [Example 1]	192 nM
CCOc1ncc(C)c2c1C(c1ccc(C#N)cc1OC)C(c1nnco1)=C(C)N2 (stereo not drawn) [Example 2, 4-(5-ethoxy-2,8-dimethyl-3-(1,3,4-oxadiazole-2-yl)-1,4-dihydro-1,6-naphthyridine-4-yl)-3-methoxybenzonitrile]	48.9 nM
CC1=C(C(N)=O)C(c2ccc(C#N)c3c2OCC3)c2c(OCC3CC(F)(F)C3)ncc(C)c2N1 (stereo not drawn) [Example 16]	34.1 nM
CCOc1ncc(C)c2c1C(c1ccc(C#N)c3c1OCC3)C(C(N)=O)=C(C)N2 (stereo not drawn) [Example 11, 4-(4-cyano-2,3-dihydrobenzofuran-7-yl)-5-ethoxy-2,8-dimethyl-1,4-dihydro-1,6-naphthyridine-3-formamide]	92.1 nM
